Molecules are shown by their SMILES. “And” between values parts separate entries of the source, which are not always exact repeats. Equal values may be shown once.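 Results reflect a 48-hour exposure of cells in 96-well plates to compound at five concentrations. The concentration for 50% growth inhibition is given as GI50. TGI denotes the concentration required for complete inhibition of growth.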 A value given as a limit tells only on which side of the number the result lay.

Test systems include MALME-3M melanoma; IGROV1 ovarian; HCT-116 colon; SF-295 CNS; 786-0 renal; SK-OV-3 ovarian; NCI-H226 lung; UO-31 renal; DU-145 prostate.
Holding throughout (assay): NCI anticancer screen, dose series, 48 h

Consider `CN(CCN(C)C(=O)CCOS(C)(=O)=O)C(=O)CCOS(C)(=O)=O`, for which the TGI in the assay on MALME-3M melanoma, in the assay with IGROV1 ovarian, in the assay with HCT-116 colon, in the assay on SF-295 CNS, in the assay on 786-0 renal and in the assay with SK-OV-3 ovarian was over 100 µM each time. The compound also returned a TGI with NCI-H226 lung of over 100 µM.

As to `CCOC(=O)[C@H]1Nc2ccc(Cl)cc2[C@H]2c3ccccc3O[C@H]21`, the TGI with IGROV1 ovarian, in the assay on HCT-116 colon, with SF-295 CNS, in the assay on 786-0 renal, in the assay on UO-31 renal and in the assay on NCI-H226 lung was over 100 µM each time.

As for `O=CN1CCN(C=S)CC1`, the TGI in the assay on MALME-3M melanoma, in the assay with IGROV1 ovarian, with HCT-116 colon, with SF-295 CNS, in the assay with 786-0 renal and in the assay with UO-31 renal was over 100 µM in each case. The TGI in the assay on SK-OV-3 ovarian and in the assay with NCI-H226 lung was over 100 µM in each case.

In the case of `Clc1cc(Cl)cc(Nc2nc3ccccc3nc2-c2cccs2)c1`, the TGI in the assay on MALME-3M melanoma was over 100 µM; in the assay on HCT-116 colon it was 72 µM; with SF-295 CNS it was 45.8 µM; with 786-0 renal it was 31.7 µM; in the assay on UO-31 renal, over 100 µM; in the assay with SK-OV-3 ovarian, 71.1 µM. The TGI with NCI-H226 lung is over 100 µM.

Consider `NC(=O)c1c2c(cc3c(=O)c4ccccc4[nH]c13)CCCC2`, for which the TGI in the assay on MALME-3M melanoma, with IGROV1 ovarian, in the assay on HCT-116 colon, in the assay with SF-295 CNS, in the assay on 786-0 renal and in the assay with UO-31 renal was over 100 µM each time. Further, the TGI in the assay on SK-OV-3 ovarian and in the assay on NCI-H226 lung was over 100 µM throughout.

As to `O=C(O)c1ccc(C2C3C=CC(C3)C2[N+](=O)[O-])cc1` (configuration not stated), the TGI with MALME-3M melanoma, in the assay on IGROV1 ovarian, in the assay on SF-295 CNS, with 786-0 renal, in the assay with UO-31 renal and with SK-OV-3 ovarian was over 100 µM in each case. The compound also displayed a TGI in the assay with NCI-H226 lung of over 100 µM.

Turning to `C=CCN(CC=C)CC(C(C)=O)C(c1ccccc1)c1c(O)c2ccccc2oc1=O` (configuration not stated), the TGI is over 100 µM in the assay on MALME-3M melanoma; over 100 µM with IGROV1 ovarian; over 100 µM with HCT-116 colon; 95.8 µM in the assay with SF-295 CNS; over 100 µM in the assay with 786-0 renal; over 100 µM in the assay with UO-31 renal. The TGI with SK-OV-3 ovarian and in the assay on NCI-H226 lung was over 100 µM throughout.

On to `CCOC(=O)C(=O)Nc1ccc(Cl)c(C(F)(F)F)c1`, for which the TGI in the assay on MALME-3M melanoma, in the assay on IGROV1 ovarian, with HCT-116 colon, with SF-295 CNS, in the assay with 786-0 renal and with UO-31 renal was over 100 µM in each case. Also, the TGI in the assay with SK-OV-3 ovarian and in the assay with NCI-H226 lung was over 100 µM throughout.

For the compound `CC1CC2(CCC1OCc1ccccc1)OCCO2` (configuration not stated), the TGI in the assay on MALME-3M melanoma, in the assay on IGROV1 ovarian, with HCT-116 colon, in the assay with SF-295 CNS, in the assay on 786-0 renal and in the assay with UO-31 renal was over 100 µM in each case. The TGI in the assay on SK-OV-3 ovarian is over 100 µM.

`C[Si]12OCCCN(CCO1)CCO2`: the TGI with MALME-3M melanoma, in the assay on IGROV1 ovarian, with HCT-116 colon, in the assay with SF-295 CNS, in the assay with 786-0 renal and with UO-31 renal was over 100 µM in each case. For the same compound, in the assay with SK-OV-3 ovarian, the TGI is over 100 µM.

For `COc1ccccc1NC(=O)C1=C(C)NC(C)=C(C(=O)Nc2ccccc2OC)C1c1cccc2c1OCO2`, the TGI in the assay on MALME-3M melanoma, in the assay on IGROV1 ovarian, in the assay with HCT-116 colon, with SF-295 CNS, in the assay on 786-0 renal and with UO-31 renal was over 100 µM in each case. Moreover, the TGI in the assay on SK-OV-3 ovarian and with NCI-H226 lung was over 100 µM throughout.

Consider `COc1ccc2c(c1)CCCC1C3=NCCC3(C)CSC21` (configuration not stated), for which the TGI in the assay with IGROV1 ovarian, in the assay with HCT-116 colon, with SF-295 CNS, in the assay with 786-0 renal and with SK-OV-3 ovarian was over 100 µM each time.

Regarding `COc1ccccc1NC(=O)CC(=O)NNCC(=O)Nc1nnc(-c2ccccc2)o1`, the TGI in the assay with IGROV1 ovarian, in the assay with HCT-116 colon, with SF-295 CNS, in the assay with 786-0 renal, in the assay on UO-31 renal and with SK-OV-3 ovarian was over 100 µM each time. Also, in the assay on NCI-H226 lung, the TGI is over 100 µM.

On to `COC(=O)n1c(CBr)c(Br)c2ccccc21`, for which the TGI in the assay on MALME-3M melanoma was over 100 µM; in the assay on IGROV1 ovarian, 93.1 µM; in the assay with HCT-116 colon it was over 100 µM; with SF-295 CNS it was 69.9 µM; with 786-0 renal it was over 100 µM; in the assay on UO-31 renal it was 71.1 µM. This compound also came in with a TGI with NCI-H226 lung of 33.6 µM.

As to `CC1=CC2CC(C)C1(C)CCc1ccoc12` (configuration not stated), the TGI in the assay on MALME-3M melanoma, in the assay with IGROV1 ovarian, in the assay on HCT-116 colon, with SF-295 CNS, in the assay on 786-0 renal and with UO-31 renal was over 100 µM in each case. In the assay with SK-OV-3 ovarian, this compound registered a TGI of over 100 µM.

Consider `CC(=O)O[C@H]1CC[C@@]2(C)C(=CC[C@@H]3C2CC[C@]2(C)Nc4[nH]ncc4CC32)C1` (some centres not stated), for which the TGI with MALME-3M melanoma was 86.1 µM; with IGROV1 ovarian, over 100 µM; in the assay on HCT-116 colon, 29.9 µM; in the assay with SF-295 CNS, over 100 µM; in the assay on 786-0 renal it was over 100 µM; with UO-31 renal, over 100 µM. The TGI in the assay on SK-OV-3 ovarian and in the assay with NCI-H226 lung was over 100 µM in each case.

On to `COc1ccc(C(O)/C(=C/n2ccnc2)c2ccccc2)cc1OC` (configuration not stated), for which the TGI in the assay on MALME-3M melanoma, with IGROV1 ovarian, in the assay on HCT-116 colon, with SF-295 CNS, in the assay on 786-0 renal and with UO-31 renal was over 100 µM in each case. The TGI in the assay on SK-OV-3 ovarian and with NCI-H226 lung was over 100 µM throughout.

Turning to `CCCCCCCCCCCCCCCCn1cc[n+](Cc2ccccc2)c1C`, the GI50 was 809 nM in the assay with MALME-3M melanoma; 1090 nM with IGROV1 ovarian; 866 nM and 263 nM with SF-295 CNS; 541 nM and 210 nM with 786-0 renal; 1490 nM in the assay on UO-31 renal; 1710 nM and 500 nM in the assay with SK-OV-3 ovarian. Moreover, in the assay on DU-145 prostate, the GI50 is 1070 nM and 235 nM. Besides, the TGI in the assay on MALME-3M melanoma was 2.61 µM; in the assay on IGROV1 ovarian, 2.29 µM; in the assay with SF-295 CNS, 2.28 µM and 1.22 µM; in the assay with 786-0 renal it was 1.87 µM and 0.621 µM; with UO-31 renal, 2.99 µM; with SK-OV-3 ovarian, 4.67 µM and 1.81 µM. Also, the TGI in the assay with DU-145 prostate is 2300 nM and 1050 nM.

On to `O=C(O)CCCNS(=O)(=O)c1ccc2ccccc2c1`, for which the TGI in the assay with MALME-3M melanoma, in the assay on IGROV1 ovarian, with SF-295 CNS, with 786-0 renal, in the assay on UO-31 renal and in the assay with SK-OV-3 ovarian was over 100 µM throughout. In addition, the TGI with NCI-H226 lung was over 100 µM.

Regarding `CCC[CH2][Sn]1([CH2]CCC)[O]C(=O)CN=Cc2ccccc2[O]1`, the GI50 with MALME-3M melanoma is 141 nM; in the assay on IGROV1 ovarian, 2270 nM; in the assay with HCT-116 colon, 710 nM; in the assay on SF-295 CNS, 1140 nM; in the assay on 786-0 renal, 517 nM; in the assay with UO-31 renal, 512 nM. In the assay on SK-OV-3 ovarian, the GI50 is 922 nM. The TGI is 0.469 µM with MALME-3M melanoma; over 100 µM in the assay on IGROV1 ovarian; 2.09 µM in the assay on HCT-116 colon; 2.37 µM in the assay with SF-295 CNS; 1.73 µM in the assay on 786-0 renal; 1.77 µM in the assay on UO-31 renal. Also, the TGI with SK-OV-3 ovarian worked out at 2.18 µM.

As to `Cc1c(O)c(=O)ccn1CCO`, the TGI in the assay on MALME-3M melanoma, in the assay with HCT-116 colon, with SF-295 CNS, in the assay with 786-0 renal, in the assay on UO-31 renal and in the assay on SK-OV-3 ovarian was over 100 µM in each case. The TGI in the assay on NCI-H226 lung is over 100 µM.

In the case of `COc1cc2c(c(OC)c1OC)-c1ccc(SC)c(=O)cc1C(CC(=O)Oc1cccc(C#N)c1)C2` (configuration not stated), the TGI is over 100 µM with MALME-3M melanoma; over 100 µM with IGROV1 ovarian; 5.66 µM in the assay on HCT-116 colon; over 100 µM in the assay on SF-295 CNS; over 100 µM in the assay on 786-0 renal; over 100 µM in the assay with UO-31 renal. Moreover, the TGI in the assay on SK-OV-3 ovarian was over 100 µM; with NCI-H226 lung, 1.02 µM.

On to `COC(=O)C1=Cc2c(cc(OC)c(OC)c2OC)[C@H](c2ccc(OC)c(OC)c2OC)C1C(=O)OC` (some centres not stated), for which the TGI with MALME-3M melanoma, in the assay on IGROV1 ovarian, in the assay on HCT-116 colon, in the assay on SF-295 CNS, in the assay on 786-0 renal and in the assay with UO-31 renal was over 100 µM throughout. The TGI with SK-OV-3 ovarian and in the assay on NCI-H226 lung was over 100 µM in each case.

Take `Nc1nc(SCCC/C=C/I)nc2c1ncn2C1OC(CO)C(O)C1O` (configuration not stated): the TGI in the assay with MALME-3M melanoma, in the assay on IGROV1 ovarian, in the assay with HCT-116 colon, in the assay on SF-295 CNS, in the assay on 786-0 renal and in the assay with UO-31 renal was over 202 µM each time. Further, the TGI in the assay with SK-OV-3 ovarian and in the assay on NCI-H226 lung was over 202 µM in each case.

Regarding `CNC(=O)OCc1[nH]ccc2c(C)c3nc4ccc(OC)cc4c3cc12`, the TGI is over 77.8 µM in the assay with MALME-3M melanoma; over 100 µM in the assay on IGROV1 ovarian; over 100 µM in the assay with HCT-116 colon; over 100 µM with SF-295 CNS; 20.5 µM in the assay with 786-0 renal; over 53.9 µM in the assay on UO-31 renal. Moreover, the TGI was over 100 µM with SK-OV-3 ovarian and 18.7 µM in the assay with NCI-H226 lung.

Values taken from PubChem BioAssay (NCI).
